These are literature values, as cited in US20080064711A1, “Composition for treating oral cavity and Mucousal infections” (J.P.M.E.D. LTD., priority 2002, published 2008).

In data set [1] the test system is Gram negative bacteria that tend to colonize the oral cavity. Particulars: patients undergoing radiation therapy; Spijkervet et al., 1990.
Data set [2] concerns human keratinocyte and fibroblast cultures. To be noted: Ponec et al. J Pharm Sci 1990.

On to `[H]/N=C(\N/C(=N/[H])NCCCCCCNC(=N)NC(=N)Nc1ccc(Cl)cc1)Nc1ccc(Cl)cc1` [chlorhexidine], for which the “Effectiveness against Gram negative bacteria colonizing the oral cavity” value in data set [1] is “relatively ineffective”.

Consider `CC(O)CO` (centres unmarked) [propylene glycol], for which the “Cytotoxicity to human keratinocyte and fibroblast cultures” value (“Cytotoxicity” for short) in data set [2] is given as “cytotoxic”.

As to `CCO` [Ethanol], the “Cytotoxicity” value in data set [2] was “cytotoxic”.

For the compound `CN(C)C=O` [dimethylformamide], the “Cytotoxicity” value in data set [2] is on record as “cytotoxic”.

As to `C[S+](C)[O-]` [dimethylsulfoxide], the “Cytotoxicity” value in data set [2] was “cytotoxic”.
